The text below walks through data of paper PMC9656482, “In Vitro and In Vivo Biological Activity of Ruthenium 1,10-Phenanthroline-5,6-dione Arene Complexes” (International Journal of Molecular Sciences, 2022).

Where “and” joins values, the source holds several entries; their conditions need not be identical. Equal entries are not always repeated.

Series [1] concerns A2780 cells. The series is described as follows: Cell cycle analysis (PI staining). It is filed as cell-based, human. The conditions noted are these: A2780 synchronized with thymidine; IC50 of JHOR11 or 0.1 µM doxorubicin; 5-32 h, relative to DMSO. As for the experimental part: To understand if the complex also presents a cytostatic effect, the cell cycle of A2780 cells was analyzed by DNA staining with PI, after double synchronization with thymidine at the S phase.
The cell cycle analysis was performed by DNA staining with PI according to procedures previously described with few modifications. A2780 cells were seeded in 6-well plates in a cell density of 4 × 10^5 cells/well and the cell cycle was synchronized in the S-phase by double blocking with 2 mM thymidine. […] After 5 h, 9 h, 24 h or 32 h, cells were detached, fixed with 80% (v/v) ethanol, incubated with 50 mg/mL RNase A (NZYtech, Lisbon, Portugal) and stained with […] PI (Thermo Fisher Scientific). The fluorescence of each sample was analyzed in an Attune acoustic focusing cytometer and respective software (Thermo Fisher Scientific).

Series [2] deals with normal human dermal fibroblasts. The series is described as follows: Wound scratch assay. It is filed as cell-based. As to conditions: 24 h, IC50 of the complex, versus vector control. As for the experimental part: Cell migration is an essential process for tumor progression, being one of the major events that leads to cancer metastasis. To determine if JHOR11 inhibits cell tumorigenicity, the cell migration ability was analyzed by the wound scratch assay. […] The measure of the wound scratch after 0 h and 24 h allows the determination of the migration ability of the cells.
For wound scratch assay normal human dermal fibroblasts were seeded on […] tissue plates in a cell density of 4 × 10^5 cells/plate and incubated at 37 °C, 5% (v/v), 99% (v/v) relative humidity until reach confluence. A sterile micropipette tip was then used to make a scratch on the confluent monolayer and medium was replaced by fresh medium supplemented with IC50 JHOR11 or 0.1% (v/v) DMSO, as vector control.

Series [3] deals with HCT116 cells injected into zebrafish embryos. The series is described as follows: Zebrafish embryo xenograft assay. It counts as in vivo. The conditions noted are these: 80 μM in embryo water from 1 dpi, read at 4 dpi. As for the experimental part: HCT116 human colorectal cancer cell line was incubated in standard conditions (37 °C and 5% CO2) until a confluence of 80% was reached. Afterwards, the cells were concentrated and labelled with DiI and injected into the circulation (Duct of Cuvier) of 48 hpf zebrafish embryos to assay the proliferation in vivo of the cells exposed to JHOR11 (80 μM). JHOR11 was dissolved in the embryo water at 1 dpi (days post-injection) for the embryos to recover from the injection and the establishment of the cancer cells in the caudal hematopoietic tissue (CHT), and was maintained until the end of the experiment at 4 dpi. Imaging of the embryos was performed at 1 dpi and 4 dpi to quantify the fluorescence and area of the cells in the tail of the embryos, where cells invade and grow, and measure their proliferation over time to assess the inhibitory effect of JHOR11 over the cells. […]
The images were obtained with an AZ-100 Nikon fluorescence stereomicroscope at two different times ([…]) allowing in vivo monitoring of the proliferating HCT116 cells labelled within the zebrafish embryo. The analysis of the cell progression was carried out using Quantifish Software. This software analyzes each image by measuring its fluorescence above a manually set threshold that produces the integrated intensity of each image as the output. […]

The subject of series [4] is zebrafish embryos. The series can be described thus: In vivo toxicity assessment using zebrafish embryos. How it is done:
The toxicity of the JHOR10 and JHOR11 compounds was assayed in zebrafish embryos. There was a NOEC (No Observed Effect Concentration) in the case of JHOR11 of 80 µM (Table 2). The NOEC is the concentration used for the xenotransplantation experiments in order not to affect the normal development of the embryos and being able, in parallel, to assay the effect of the compound over the injected cells. Apart from that, the mortality assayed in the toxicity assays supports the concentration obtained in the NOEC, with a low mortality of the embryos when they are incubated with JHOR11 (Figure 13 and Figure 14).
Wild-type zebrafish were housed in 30 L tanks within a water recirculation system under controlled physicochemical conditions: pH 7–7.5, temperature 26 ± 2 °C, conductivity 600 µS/cm and light/dark photoperiod of 14/10 h. The adult fish were fed Gemma Micro 300 (Skretting) twice a day. Fertilized eggs were collected after natural spawning and stored in Petri dishes for 48 h until being injected, or 72 h until being exposed to different concentrations of ruthenium compounds.
At 72 h post-fertilization (hpf), the embryos were exposed to increasing concentrations of two ruthenium compounds to determine toxicological estimates: LC50 with no observed effect concentration (NOEC) and lowest observed effect concentration (LOEC). The acute toxicity assessment of the compounds was performed following the standards of the OECD Test Guideline Program.
The embryos were individually transferred to 96-well plates containing 100 µL of each desired concentration. The plates were then placed in an incubator with a temperature of 26 °C and a photoperiod of 14 h of light and 10 h of darkness. The duration of the experiment was 96 h, and observations were made every 24 h recording the four lethal effects indicated by the OECD: embryo coagulation, absence of somite formation, absence of separation of the yolk tail and absence of heartbeat. All compounds were dissolved with dimethylsulfoxide (DMSO) with a final concentration of 1%. In each test, seven concentrations were analyzed for each compound, these being: JHOR10 (10, 20, 30, 40, 50, 55, 60 µM) and JHOR11 (50, 80, 100, 140, 200, 300, 400 µM).
For the evaluation of toxicity, the mortality data were analyzed by probit analysis with the ToxRat software (ToxRat Solutions. 2003. ToxRat®. Software for the statistical analysis of biotests. Alsdorf, Germany).

Where [5] appears, read: zebrafish embryos exposed from 72 hpf, 96 h.

For orientation: LC50 means the concentration lethal to half of the exposed cells or organisms. Read a high LC50 as lower toxicity. In the case of `Cc1ccc(C(C)C)cc1.F[P-](F)(F)(F)(F)F.O=C1C(=O)c2cccnc2-c2ncccc21.[Cl][Ru+]` [JHOR11], the cell cycle effect entry in series [1] is listed as “slight increase in cells in G2/M phase”. In addition, in series [2], the “percentage of regeneration of the wound scratch” value is reported as “no significant differences”. Further, the “decrease of proliferation of HCT116 cells compared to control” value in series [3] is 45%. Besides, in series [4] (setting [5]), the LC50 amounted to 225 µM; the “NOEC (No Observed Effect Concentration)” value is 80 µM and 80.00 µM. Also, the “mortality of the embryos” value in series [4] (zebrafish embryos incubated with compound) was “low mortality”.
